Laboratory results from PubChem BioAssay (NCI).
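Dose response: 5 concentrations. Exposure: 48 h. Format: 96-well plates. Endpoint: linear interpolation; highest concentration if not reached. GI50: concentration for 50% inhibition of growth. TGI marks complete inhibition of growth.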

What was measured:
Experiment in all cases: DTP human tumour cell line panel, 48 h
786-0 renal = test system: 786-0 renal
A498 renal = test system: A498 renal
A549 NSCLC = test system: A549 NSCLC
ACHN renal = test system: ACHN renal
BT-549 breast = test system: BT-549 breast
CAKI-1 renal = test system: CAKI-1 renal
CCRF-CEM leukemia = test system: CCRF-CEM leukemia
COLO 205 colon = test system: COLO 205 colon
DU-145 prostate = test system: DU-145 prostate
EKVX NSCLC = test system: EKVX NSCLC
HCC-2998 colon = test system: HCC-2998 colon
HCT-116 colon = test system: HCT-116 colon
HCT-15 colon = test system: HCT-15 colon
HL-60(TB) leukemia = test system: HL-60(TB) leukemia
HOP-62 NSCLC = test system: HOP-62 NSCLC
HOP-92 NSCLC = test system: HOP-92 NSCLC
HS 578T breast = test system: HS 578T breast
HT29 colon = test system: HT29 colon
IGROV1 ovarian = test system: IGROV1 ovarian
K-562 leukemia = test system: K-562 leukemia
KM12 colon = test system: KM12 colon
LOX IMVI melanoma = test system: LOX IMVI melanoma
M14 melanoma = test system: M14 melanoma
MALME-3M melanoma = test system: MALME-3M melanoma
MCF7 breast = test system: MCF7 breast
MDA-MB-231 breast = test system: MDA-MB-231 breast
MDA-MB-435 = test system: MDA-MB-435
MOLT-4 leukemia = test system: MOLT-4 leukemia
NCI-H226 lung = test system: NCI-H226 lung
NCI-H23 lung = test system: NCI-H23 lung
NCI-H460 lung = test system: NCI-H460 lung
NCI-H522 lung = test system: NCI-H522 lung
NCI/ADR-RES ovarian = test system: NCI/ADR-RES ovarian
OVCAR-3 ovarian = test system: OVCAR-3 ovarian
OVCAR-4 ovarian = test system: OVCAR-4 ovarian
OVCAR-5 ovarian = test system: OVCAR-5 ovarian
OVCAR-8 ovarian = test system: OVCAR-8 ovarian
PC-3 prostate = test system: PC-3 prostate
RPMI-8226 leukemia = test system: RPMI-8226 leukemia
RXF 393 renal = test system: RXF 393 renal
SF-268 CNS = test system: SF-268 CNS
SF-295 CNS = test system: SF-295 CNS
SF-539 CNS = test system: SF-539 CNS
SK-MEL-2 melanoma = test system: SK-MEL-2 melanoma
SK-MEL-28 melanoma = test system: SK-MEL-28 melanoma
SK-MEL-5 melanoma = test system: SK-MEL-5 melanoma
SK-OV-3 ovarian = test system: SK-OV-3 ovarian
SN12C renal = test system: SN12C renal
SNB-19 CNS = test system: SNB-19 CNS
SNB-75 CNS = test system: SNB-75 CNS
SR leukemia = test system: SR leukemia
SW-620 colon = test system: SW-620 colon
T-47D breast = test system: T-47D breast
TK-10 renal = test system: TK-10 renal
U251 CNS = test system: U251 CNS
UACC-257 melanoma = test system: UACC-257 melanoma
UACC-62 melanoma = test system: UACC-62 melanoma
UO-31 renal = test system: UO-31 renal

For `COc1ccc(-c2nn(C(=O)NCCN(C)C)cc2-c2ccncc2)cc1Cl`, the GI50 (786-0 renal) was 7.62 µM, the TGI (786-0 renal) was 51.5 µM and the GI50 (A498 renal) was 2.12 µM. The TGI (A498 renal) was 5.95 µM, the GI50 (A549 NSCLC) was 5.44 µM and the TGI (A549 NSCLC) was > 100 µM. The GI50 (ACHN renal) was 3.76 µM, the TGI (ACHN renal) was > 100 µM and the GI50 (BT-549 breast) was 4.51 µM. For the same molecule, the TGI (BT-549 breast) was > 100 µM, the GI50 (CAKI-1 renal) was 3.24 µM and the TGI (CAKI-1 renal) was 24.4 µM. For the same molecule, the GI50 (CCRF-CEM leukemia) was 7.47 µM, the TGI (CCRF-CEM leukemia) was > 100 µM and the GI50 (COLO 205 colon) was 3.5 µM. It also gave a TGI (COLO 205 colon) of 13.9 µM, a GI50 (DU-145 prostate) of 6.94 µM and a TGI (DU-145 prostate) of 65.6 µM. The GI50 (EKVX NSCLC) was 2.23 µM, the TGI (EKVX NSCLC) was > 100 µM and the GI50 (HCC-2998 colon) was 10.1 µM. The TGI (HCC-2998 colon) was 46.4 µM, the GI50 (HCT-116 colon) was 4.6 µM and the TGI (HCT-116 colon) was > 100 µM. For the same molecule, the GI50 (HCT-15 colon) was 3.93 µM, the TGI (HCT-15 colon) was > 100 µM and the GI50 (HL-60(TB) leukemia) was 5.3 µM. For the same molecule, the TGI (HL-60(TB) leukemia) was 57.9 µM, the GI50 (HOP-62 NSCLC) was 2.99 µM and the TGI (HOP-62 NSCLC) was 20.9 µM. The GI50 (HOP-92 NSCLC) was 1.16 µM, the TGI (HOP-92 NSCLC) was 56.3 µM and the GI50 (HS 578T breast) was 2.79 µM. For the same molecule, the TGI (HS 578T breast) was 9.21 µM, the GI50 (HT29 colon) was 2.17 µM and the TGI (HT29 colon) was 12.6 µM. For the same molecule, the GI50 (IGROV1 ovarian) was 8.74 µM, the TGI (IGROV1 ovarian) was > 100 µM and the GI50 (K-562 leukemia) was 5.66 µM. The TGI (K-562 leukemia) was > 100 µM, the GI50 (KM12 colon) was 4.01 µM and the TGI (KM12 colon) was 43.5 µM. For the same molecule, the GI50 (LOX IMVI melanoma) was 4.23 µM, the TGI (LOX IMVI melanoma) was 48.9 µM and the GI50 (M14 melanoma) was 5.52 µM. For the same molecule, the TGI (M14 melanoma) was 24.4 µM, the GI50 (MALME-3M melanoma) was 11.8 µM and the TGI (MALME-3M melanoma) was > 100 µM. For the same molecule, the GI50 (MCF7 breast) was 3.57 µM, the TGI (MCF7 breast) was > 100 µM and the GI50 (MDA-MB-231 breast) was 6.34 µM. The TGI (MDA-MB-231 breast) was > 100 µM, the GI50 (MDA-MB-435) was 1.15 µM and the TGI (MDA-MB-435) was 4.34 µM. For the same molecule, the GI50 (MOLT-4 leukemia) was 4.67 µM, the TGI (MOLT-4 leukemia) was > 100 µM and the GI50 (NCI-H226 lung) was 4.11 µM. The TGI (NCI-H226 lung) was 63.7 µM, the GI50 (NCI-H23 lung) was 6.29 µM and the TGI (NCI-H23 lung) was 60.7 µM. For the same molecule, the GI50 (NCI-H460 lung) was 3.83 µM, the TGI (NCI-H460 lung) was 35.4 µM and the GI50 (NCI-H522 lung) was 1.88 µM. For the same molecule, the TGI (NCI-H522 lung) was 5.36 µM, the GI50 (NCI/ADR-RES ovarian) was 3.1 µM and the TGI (NCI/ADR-RES ovarian) was > 100 µM. It also gave a GI50 (OVCAR-3 ovarian) of 4.32 µM, a TGI (OVCAR-3 ovarian) of 39.1 µM and a GI50 (OVCAR-4 ovarian) of 7.87 µM. The TGI (OVCAR-4 ovarian) was > 100 µM, the GI50 (OVCAR-5 ovarian) was 15.1 µM and the TGI (OVCAR-5 ovarian) was > 100 µM. It also gave a GI50 (OVCAR-8 ovarian) of 1.73 µM, a TGI (OVCAR-8 ovarian) of 35.9 µM and a GI50 (PC-3 prostate) of 4.62 µM. The TGI (PC-3 prostate) was > 100 µM, the GI50 (RPMI-8226 leukemia) was 9.71 µM and the TGI (RPMI-8226 leukemia) was 81.8 µM. For the same molecule, the GI50 (RXF 393 renal) was 2.19 µM, the TGI (RXF 393 renal) was 12.8 µM and the GI50 (SF-268 CNS) was 3.68 µM. It also gave a TGI (SF-268 CNS) of 37.2 µM, a GI50 (SF-295 CNS) of 3 µM and a TGI (SF-295 CNS) of 42.6 µM. It also gave a GI50 (SF-539 CNS) of 2.28 µM, a TGI (SF-539 CNS) of 13.1 µM and a GI50 (SK-MEL-2 melanoma) of 3.67 µM. For the same molecule, the TGI (SK-MEL-2 melanoma) was 9.48 µM, the GI50 (SK-MEL-28 melanoma) was 4.01 µM and the TGI (SK-MEL-28 melanoma) was 38.3 µM. For the same molecule, the GI50 (SK-MEL-5 melanoma) was 3.05 µM, the TGI (SK-MEL-5 melanoma) was 11.4 µM and the GI50 (SK-OV-3 ovarian) was 3.12 µM. For the same molecule, the TGI (SK-OV-3 ovarian) was 15.5 µM, the GI50 (SN12C renal) was 5.39 µM and the TGI (SN12C renal) was > 100 µM. The GI50 (SNB-19 CNS) was 5.15 µM, the TGI (SNB-19 CNS) was > 100 µM and the GI50 (SNB-75 CNS) was 1.68 µM. For the same molecule, the TGI (SNB-75 CNS) was 6.19 µM, the GI50 (SR leukemia) was 6.03 µM and the TGI (SR leukemia) was > 100 µM. For the same molecule, the GI50 (SW-620 colon) was 3.35 µM, the TGI (SW-620 colon) was > 100 µM and the GI50 (T-47D breast) was 11.6 µM. For the same molecule, the TGI (T-47D breast) was > 100 µM, the GI50 (TK-10 renal) was 1.86 µM and the TGI (TK-10 renal) was 56.1 µM. For the same molecule, the GI50 (U251 CNS) was 3.71 µM, the TGI (U251 CNS) was > 100 µM and the GI50 (UACC-257 melanoma) was 16.6 µM. The TGI (UACC-257 melanoma) was > 100 µM, the GI50 (UACC-62 melanoma) was 3.07 µM and the TGI (UACC-62 melanoma) was 14.3 µM. It also gave a GI50 (UO-31 renal) of 8.62 µM and a TGI (UO-31 renal) of 53.6 µM.
